From patent US20260274892A1, “MACROCYCLIC BROAD SPECTRUM ANTIBIOTICS” (RQx Pharmaceuticals, Inc., priority 2017, published 2026)

How the values were obtained:
[1] = test system: Escherichia coli ATCC 25922; assay: Minimum inhibitory concentration (MIC), CLSI broth micro-dilution, E. coli; format: cell-based; settings: Escherichia coli
Outline: (§1)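 Colonies grown 20 h at 35° C on Trypticase Soy agar (MRSA) or Luria agar (E. coli) were suspended in cation-adjusted Mueller Hinton broth with 0.002% Tween-80. Suspensions were added at OD600 0.0005 to 10-point twofold compound dilutions, then incubated 22 h at 35° C.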

[2] = test system: Methicillin Resistant Staphylococcus aureus strain USA 200; assay: Minimum inhibitory concentration (MIC), CLSI broth micro-dilution, S. aureus; format: cell-based; settings: Staphylococcus aureus, MRSA / USA200; Table 6; MRSA USA 200; cation adjusted Mueller Hinton Broth + 0.002% Tween-80; 35° C., 22 hours
Outline: as §1

[3] = ATCC25922, 22 h, Table 6, cation adjusted Mueller Hinton Broth + 0.002% Tween-80, 35° C.

SMILES | MIC [1, 3] | MIC [2] | MIC ([1]; ATCC25922, Table 6, cation adjusted Mueller Hinton Broth + 0.002% Tween-80, 35° C., 22 hours)
CCCCCOc1ccc(-c2nc(C)c(C(=O)N[C@@H](CCN)C(=O)N(C)[C@@H]3C(=O)N[C@@H](C)C(=O)N[C@H](C(=O)NCC#N)Cc4ccc(OCCN)c(c4)-c4cc3ccc4OCCN)c(C)n2)cc1 (racemic) [Compound 328, rac-(8S,11S,14S)-3,18-bis(2-aminoethoxy)-N-(cyanomethyl)-11-methyl-14-[methyl-[rac-(2S)-4-amino-2-[[4,6-dimethyl-2-(4-pentoxyphenyl)pyrimidine-5-carbonyl]amino]butanoyl]amino]-10,13-dioxo-9,12-diazatricyclo[13.3.1.12,6]icosa-1(18),2(20),3,5,15(19),16-hexaene-8-carboxamide] | 0.07 µM | 0.0093 µM | –
CCCCOc1ccc(-c2nc(C)c(C(=O)N[C@@H](CCN)C(=O)N(C)[C@@H]3C(=O)N[C@@H](C)C(=O)N[C@H](C(=O)NCC#N)Cc4ccc(OCCN)c(c4)-c4cc3ccc4OCCN)c(C)n2)cc1 (racemic) [Compound 331, rac-(8S,11S,14S)-3,18-bis(2-aminoethoxy)-N-(cyanomethyl)-11-methyl-14-[methyl-[rac-(2S)-4-amino-2-[[2-(4-butoxyphenyl)-4,6-dimethyl-pyrimidine-5-carbonyl]amino]butanoyl]amino]-10,13-dioxo-9,12-diazatricyclo[13.3.1.12,6]icosa-1(18),2(20),3,5,15(19),16-hexaene-8-carboxamide] | 0.13 µM | 0.0081 µM | –
COCCOc1ccc(-c2nc(C)c(C(=O)N[C@@H](CCN)C(=O)N(C)[C@@H]3C(=O)N[C@@H](C)C(=O)N[C@H](C(=O)NCC#N)Cc4ccc(OCCN)c(c4)-c4cc3ccc4OCCN)c(C)n2)cc1 (racemic) [Compound 333, rac-(8S,11S,14S)-3,18-bis(2-aminoethoxy)-N-(cyanomethyl)-11-methyl-14-[methyl-[rac-(2S)-4-amino-2-[[2-[4-(2-methoxyethoxy)phenyl]-4,6-dimethyl-pyrimidine-5-carbonyl]amino]butanoyl]amino]-10,13-dioxo-9,12-diazatricyclo[13.3.1.12,6]icosa-1(18),2(20),3,5,15(19),16-hexaene-8-carboxamide] | – | 1 µM | 2 µM
Cc1nc(-c2ccc(OC3CCCC3)cc2)nc(C)c1C(=O)N[C@@H](CCN)C(=O)N(C)[C@@H]1C(=O)N[C@@H](C)C(=O)N[C@H](C(=O)NCC#N)Cc2ccc(OCCN)c(c2)-c2cc1ccc2OCCN (racemic) [Compound 336, rac-(8S,11S,14S)-3,18-bis(2-aminoethoxy)-N-(cyanomethyl)-11-methyl-14-[methyl-[rac-(2S)-4-amino-2-[[2-[4-(cyclopentoxy)phenyl]-4,6-dimethyl-pyrimidine-5-carbonyl]amino]butanoyl]amino]-10,13-dioxo-9,12-diazatricyclo[13.3.1.12,6]icosa-1(18),2(20),3,5,15(19),16-hexaene-8-carboxamide] | 0.15 µM | 0.016 µM | –
Cc1nc(-c2ccc(OCCC(C)(C)C)cc2)nc(C)c1C(=O)N[C@@H](CCN)C(=O)N(C)[C@@H]1C(=O)N[C@@H](C)C(=O)N[C@H](C(=O)NCC#N)Cc2ccc(OCCN)c(c2)-c2cc1ccc2OCCN (racemic) [Compound 338, rac-(8S,11S,14S)-3,18-bis(2-aminoethoxy)-N-(cyanomethyl)-11-methyl-14-[methyl-[rac-(2S)-4-amino-2-[[2-[4-(3,3-dimethylbutoxy)phenyl]-4,6-dimethyl-pyrimidine-5-carbonyl]amino]butanoyl]amino]-10,13-dioxo-9,12-diazatricyclo[13.3.1.12,6]icosa-1(18),2(20),3,5,15(19),16-hexaene-8-carboxamide] | 0.13 µM | 0.012 µM | –
Cc1nc(-c2ccc(OC3CCCCCC3)cc2)nc(C)c1C(=O)N[C@@H](CCN)C(=O)N(C)[C@@H]1C(=O)N[C@@H](C)C(=O)N[C@H](C(=O)NCC#N)Cc2ccc(OCCN)c(c2)-c2cc1ccc2OCCN (racemic) [Compound 340, rac-(8S,11S,14S)-3,18-bis(2-aminoethoxy)-N-(cyanomethyl)-11-methyl-14-[methyl-[rac-(2S)-4-amino-2-[[2-[4-(cycloheptoxy)phenyl]-4,6-dimethyl-pyrimidine-5-carbonyl]amino]butanoyl]amino]-10,13-dioxo-9,12-diazatricyclo[13.3.1.12,6]icosa-1(18),2(20),3,5,15(19),16-hexaene-8-carboxamide] | 0.063 µM | 0.023 µM | –

The next lines start with results.

MIC [1, 3] | MIC [2] | SMILES | MIC ([1]; ATCC25922, Table 6, cation adjusted Mueller Hinton Broth + 0.002% Tween-80, 35° C., 22 hours)
0.13 µM | 0.031 µM | Cc1nc(-c2ccc(N3CCCCCCC3)cc2)nc(C)c1C(=O)N[C@@H](CCN)C(=O)N(C)[C@@H]1C(=O)N[C@@H](C)C(=O)N[C@H](C(=O)NCC#N)Cc2ccc(OCCN)c(c2)-c2cc1ccc2OCCN (racemic) [Compound 326, rac-(8S,11S,14S)-3,18-bis(2-aminoethoxy)-N-(cyanomethyl)-11-methyl-14-[methyl-[rac-(2S)-4-amino-2-[[2-[4-(azocan-1-yl)phenyl]-4,6-dimethyl-pyrimidine-5-carbonyl]amino]butanoyl]amino]-10,13-dioxo-9,12-diazatricyclo[13.3.1.12,6]icosa-1(18),2(20),3,5,15(19),16-hexaene-8-carboxamide] | –
0.11 µM | 0.011 µM | Cc1nc(-c2ccc(OCCC(C)C)cc2)nc(C)c1C(=O)N[C@@H](CCN)C(=O)N(C)[C@@H]1C(=O)N[C@@H](C)C(=O)N[C@H](C(=O)NCC#N)Cc2ccc(OCCN)c(c2)-c2cc1ccc2OCCN (racemic) [Compound 329, rac-(8S,11S,14S)-3,18-bis(2-aminoethoxy)-N-(cyanomethyl)-11-methyl-14-[methyl-[rac-(2S)-4-amino-2-[[2-(4-isopentyloxyphenyl)-4,6-dimethyl-pyrimidine-5-carbonyl]amino]butanoyl]amino]-10,13-dioxo-9,12-diazatricyclo[13.3.1.12,6]icosa-1(18),2(20),3,5,15(19),16-hexaene-8-carboxamide] | –
0.26 µM | 0.033 µM | CCCOc1ccc(-c2nc(C)c(C(=O)N[C@@H](CCN)C(=O)N(C)[C@@H]3C(=O)N[C@@H](C)C(=O)N[C@H](C(=O)NCC#N)Cc4ccc(OCCN)c(c4)-c4cc3ccc4OCCN)c(C)n2)cc1 (racemic) [Compound 330, rac-(8S,11S,14S)-3,18-bis(2-aminoethoxy)-N-(cyanomethyl)-11-methyl-14-[methyl-[rac-(2S)-4-amino-2-[[4,6-dimethyl-2-(4-propoxyphenyl)pyrimidine-5-carbonyl]amino]butanoyl]amino]-10,13-dioxo-9,12-diazatricyclo[13.3.1.12,6]icosa-1(18),2(20),3,5,15(19),16-hexaene-8-carboxamide] | –
0.063 µM | 0.0078 µM | CCCCCCOc1ccc(-c2nc(C)c(C(=O)N[C@@H](CCN)C(=O)N(C)[C@@H]3C(=O)N[C@@H](C)C(=O)N[C@H](C(=O)NCC#N)Cc4ccc(OCCN)c(c4)-c4cc3ccc4OCCN)c(C)n2)cc1 (racemic) [Compound 332, rac-(8S,11S,14S)-3,18-bis(2-aminoethoxy)-N-(cyanomethyl)-11-methyl-14-[methyl-[rac-(2S)-4-amino-2-[[2-(4-hexoxyphenyl)-4,6-dimethyl-pyrimidine-5-carbonyl]amino]butanoyl]amino]-10,13-dioxo-9,12-diazatricyclo[13.3.1.12,6]icosa-1(18),2(20),3,5,15(19),16-hexaene-8-carboxamide] | –
4 µM | 0.5 µM | Cc1nc(-c2ccc3c(c2)OCCO3)nc(C)c1C(=O)N[C@@H](CCN)C(=O)N(C)[C@@H]1C(=O)N[C@@H](C)C(=O)N[C@H](C(=O)NCC#N)Cc2ccc(OCCN)c(c2)-c2cc1ccc2OCCN (racemic) [Compound 334, rac-(8S,11S,14S)-3,18-bis(2-aminoethoxy)-N-(cyanomethyl)-11-methyl-14-[methyl-[rac-(2S)-4-amino-2-[[2-(2,3-dihydro-1,4-benzodioxin-6-yl)-4,6-dimethyl-pyrimidine-5-carbonyl]amino]butanoyl]amino]-10,13-dioxo-9,12-diazatricyclo[13.3.1.12,6]icosa-1(18),2(20),3,5,15(19),16-hexaene-8-carboxamide] | –
0.11 µM | 0.012 µM | Cc1nc(-c2ccc(OC3CCCCC3)cc2)nc(C)c1C(=O)N[C@@H](CCN)C(=O)N(C)[C@@H]1C(=O)N[C@@H](C)C(=O)N[C@H](C(=O)NCC#N)Cc2ccc(OCCN)c(c2)-c2cc1ccc2OCCN (racemic) [Compound 337, rac-(8S,11S,14S)-3,18-bis(2-aminoethoxy)-N-(cyanomethyl)-11-methyl-14-[methyl-[rac-(2S)-4-amino-2-[[2-[4-(cyclohexoxy)phenyl]-4,6-dimethyl-pyrimidine-5-carbonyl]amino]butanoyl]amino]-10,13-dioxo-9,12-diazatricyclo[13.3.1.12,6]icosa-1(18),2(20),3,5,15(19),16-hexaene-8-carboxamide] | –
0.25 µM | 0.047 µM | CCC(CC)Oc1ccc(-c2nc(C)c(C(=O)N[C@@H](CCN)C(=O)N(C)[C@@H]3C(=O)N[C@@H](C)C(=O)N[C@H](C(=O)NCC#N)Cc4ccc(OCCN)c(c4)-c4cc3ccc4OCCN)c(C)n2)cc1 (racemic) [Compound 339, rac-(8S,11S,14S)-3,18-bis(2-aminoethoxy)-N-(cyanomethyl)-11-methyl-14-[methyl-[rac-(2S)-4-amino-2-[[2-[4-(1-ethylpropoxy)phenyl]-4,6-dimethyl-pyrimidine-5-carbonyl]amino]butanoyl]amino]-10,13-dioxo-9,12-diazatricyclo[13.3.1.12,6]icosa-1(18),2(20),3,5,15(19),16-hexaene-8-carboxamide] | –
